Assay results published in ChEMBL document CHEMBL1140769, “Characterization of distamycin A binding to damaged DNA” (Bioorg Med Chem, 2008).

Experiments:
[1] = Binding affinity to MG.C-20 DNA duplex by CD titration
[2] = Binding affinity to G.A-20 DNA duplex by CD titration
[3] = Binding affinity to T.A-20 DNA duplex by CD titration
[4] = Binding affinity to AP.A-20 DNA duplex by CD titration
[5] = Binding affinity to OG.A-20 DNA duplex by CD titration

Work on `Cn1cc(NC(=O)c2cc(NC(=O)c3cc(NC=O)cn3C)cn2C)cc1C(=O)NCCC(=N)N` [STALLIMYCIN] yielded a Kd [1] of 7600 nM, a Kd [2] of 3700 nM and a Kd [3] of 370 nM. It also gave a Kd [4] of 2000 nM and a Kd [5] of 200 nM.
